Results on 1 compound are retold here after US20230295118A1 (EnhancedBio Inc., priority 2022, published 2023).

The subject of experiment [1] is mantle cell lymphoma cell (Mino or JeKo-1). Briefly: Antiproliferative effect, MTS cell viability assay. The experiment is classed as cell-based. Particulars: 72 h. Summed up: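 MTS read-out (formazan absorbance at 490 nm) after 72 h exposure of Mino cells to 0–1 μM compound (0.0001, 0.001, 0.01, 0.1, 1 μM). Palbociclib and abemaciclib served as positive controls.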
(In general: Tetrazolium assays rely on reduction of a dye to a coloured formazan, in cell work by metabolically active cells.)

Experiment [2] deals with T1, CDK4 (Homo sapiens, UniProt P11802).
T1 construct: endogenous in cells
T1 sequence (P11802 whole entry): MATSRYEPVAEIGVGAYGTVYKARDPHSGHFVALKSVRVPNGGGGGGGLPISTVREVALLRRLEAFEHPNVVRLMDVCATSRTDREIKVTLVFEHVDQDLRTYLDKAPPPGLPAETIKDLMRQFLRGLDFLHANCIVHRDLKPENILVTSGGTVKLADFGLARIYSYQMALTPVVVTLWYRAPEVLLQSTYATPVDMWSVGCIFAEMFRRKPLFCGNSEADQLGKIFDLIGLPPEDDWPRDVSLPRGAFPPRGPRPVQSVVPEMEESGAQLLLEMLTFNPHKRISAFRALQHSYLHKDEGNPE
Description: CDK4 degradation (DC50, Dmax). It is filed as cell-based.

For experiment [3], the target named is T2, CDK6 (Homo sapiens, UniProt Q00534).
T2 construct: endogenous in cells
T2 sequence (Q00534 whole entry): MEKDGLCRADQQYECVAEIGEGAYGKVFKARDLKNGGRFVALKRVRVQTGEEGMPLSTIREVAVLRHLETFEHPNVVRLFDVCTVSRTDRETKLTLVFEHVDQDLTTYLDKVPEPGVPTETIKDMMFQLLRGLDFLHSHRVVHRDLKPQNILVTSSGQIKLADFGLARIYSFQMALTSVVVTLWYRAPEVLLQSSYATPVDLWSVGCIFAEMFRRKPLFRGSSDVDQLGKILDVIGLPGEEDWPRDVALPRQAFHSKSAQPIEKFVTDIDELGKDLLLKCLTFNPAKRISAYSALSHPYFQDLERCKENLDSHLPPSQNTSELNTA
Briefly: CDK6 degradation (DC50, Dmax). It is filed as cell-based.

Experiment [4] relates to Mino xenograft tumor. Description: In vivo tumor inhibition efficacy, Mino xenograft. To be noted: NOD/SCID mice, 20 mg/kg via oral gavage for 3 weeks; result in words. As for the experimental part:
Mino cells were obtained from American Type Culture Collection (ATCC, Manassas, VA). Cells were maintained in RPM 1640 (Life Technologies, Grand Island, NY) supplemented with 10% heat-inactivated fetal bovine serum (56° C. for 30 minutes), penicillin (10 000 units/mL; Sigma, St Louis, Mo), streptomycin (10 mg/mL; Sigma), gentamicin (50 mg/mL; Life Technologies), amphotericin B (25 mg/mL; Sigma), and L-glutamine (200 mM, 29.2 mg/mL; Life Technologies), culture, as previously described (29, 30). Mino cells (10 million) were subcutaneously implanted into the flank of NOD/SCID mice. When the average tumor volume reached approximately 300 cubic millimeters (mm^3), the following treatments were administered in cohorts of 5 mice for each treatment: vehicle alone, 20 mg/kg abemaciclib, 20 mg/kg Compound 90, or 20 mg/kg Compound 94 via oral gavage for 3 weeks. Tumor growth was monitored twice weekly by calipers and tumor volume was calculated using the equation: (½ (length×width^2)).

On to `Cc1nc2c(F)cc(-c3nc(Nc4ccc(CN5CCN(CCNc6ccc7c(c6)C(=O)N(C6CCC(=O)NC6=O)C7=O)CC5)cn4)ncc3F)cc2n1C(C)C` (stereo not shown) [Compound 90, 2-(2,6-dioxopiperidin-3-yl)-5-((2-(4-((6-((5-fluoro-4-(4-fluoro-1-isopropyl-2-methyl-1H-benzo[d]imidazol-6-yl)pyrimidin-2-yl)amino)pyridin-3-yl)methyl)piperazin-1-yl)ethyl)amino) isoindoline-1,3-dione], for which the IC50 in experiment [1] (mantle cell lymphoma cell (Mino or JeKo-1), MTS assay, read-out: IC50 (anti-proliferation)) was less than 0.05 µM. Moreover, the “inhibition of cell proliferation of Mino cells” value in experiment [1] (Mino cells, 0-1 μM, result in words) is listed as “dose-dependent inhibition of cell proliferation”. In addition, the DC50 in experiment [2] and in experiment [3] was less than 0.05 µM throughout. Moreover, the Dmax in experiment [2] and in experiment [3] was more than 80% throughout. In experiment [4], the “Mino xenograft tumor growth” value was “inhibiting Mino xenograft tumor growth”.

Broadly, the DC50 is the midpoint of the concentration-degradation curve. The Dmax is the largest share of the target that was removed.
